Measured values published in patent publication US7393937B2, “N-acetylglucosamine derivatives and use thereof” (Kao Corporation, priority 2002, dated 2008).

Key:
cultured epidermal cells = details: 5 mmol/L; independently from cell proliferation; cited from earlier work
[1] = system: Normal human epidermal cells; assay: Test Example 2: hyaluronic acid production promotion in normal human epidermal cells; type: cell-based; details: 48-hour culture, FIG. 3
Source text: Normal human epidermal cells (manufactured by Kurabo Industries Ltd.) were inoculated into 24-well plates and cultured in a culture medium for proliferation to the confluent density, and then 2-acetamido-1,3,4,6-tetra-O-acetyl-2-deoxy-β-D-glucopyranoside represented by formula (17) to a final concentration of 100 μmol/L, N-acetylglucosamine derivative obtained in Production Example 9 at a final concentration of 1 mmol/L, and N-acetylglucosamine derivatives obtained in Production Examples 10 to 12 at a final concentration of 100 mmol/L were added. After 48-hour culture from the addition, the amount of hyaluronic acid released into the culture medium was measured. The measurement of the hyaluronic acid was carried out by using a commercially available hyaluronic acid measurement kit (manufactured by Chugai Pharmaceutical Co., Ltd.).

[2] = 100 mmol/L (so in the source), 1/10 concentration of N-acetylglucosamine

SMILES	hyaluronic acid production-promoting effect compared with N-acetylglucosamine [1, 2] [times]	further results
CC(=O)N[C@H]1C(O)O[C@H](CO)[C@@H](O)[C@@H]1O (stereo partly drawn) [N-acetylglucosamine]	–	promotion of hyaluronic acid production (cultured epidermal cells): about 1.5 times
CCOC1OC(COC(C)=O)C(OC(C)=O)C(OC(C)=O)C1NC(C)=O [Production Example 9, ethyl(2-acetamido-3,4,6-tri-O-acetyl-2-deoxy)β-D-glucopyranoside]	–	hyaluronic acid production-promoting effect compared with N-acetylglucosamine ([1]; 1 mmol/L (same concentration as N-acetylglucosamine)): 6.5 times
CCCCCOC1OC(COC(C)=O)C(OC(C)=O)C(OC(C)=O)C1NC(C)=O [Production Example 10, pentyl(2-acetamido-3,4,6-tri-O-acetyl-2-deoxy)β-D-glucopyranoside]	3.8	–
CCCCCCCCOC1OC(COC(C)=O)C(OC(C)=O)C(OC(C)=O)C1NC(C)=O [Production Example 11, octyl(2-acetamido-3,4,6-tri-O-acetyl-2-deoxy)β-D-glucopyranoside]	2.8	–
CC(=O)NC1C(OC/C=C(\C)CCC=C(C)C)OC(COC(C)=O)C(OC(C)=O)C1OC(C)=O [Production Example 12, geranyl(2-acetamido-3,4,6-tri-O-acetyl-2-deoxy)β-D-glucopyranoside]	3.7	–
CC(=O)NC1C(OC(C)=O)OC(COC(C)=O)C(OC(C)=O)C1OC(C)=O [formula (17), 2-acetamido-1,3,4,6-tetra-O-acetyl-2-deoxy-β-D-glucopyranoside]	–	hyaluronic acid production-promoting effect compared with N-acetylglucosamine ([1]; 100 μmol/L (1/10 concentration of N-acetylglucosamine)): 3.0 times
